# Patent EP1202975B1, “SUBSTITUTED POLYCYCLIC ARYL AND HETEROARYL PYRAZINONES USEFUL FOR SELECTIVE INHIBITION OF THE COAGULATION CASCADE” (Pharmacia Corporation, priority 1999, dated 2000)
# pIC50: −log10 of the molar value.
# Target: T1, TF-VIIa (Homo sapiens, UniProt P08709)
# T1 construct: 2nM recombinant human factor VIIa; purchased American Diagnostica, Greenwich CT; host or cells: soluble TF made in house in E. coli
# Assay: TF-VIIa Assay
# Format: biochemical
# Conditions: not given
# T1 sequence (P08709 213-466 limits assumed): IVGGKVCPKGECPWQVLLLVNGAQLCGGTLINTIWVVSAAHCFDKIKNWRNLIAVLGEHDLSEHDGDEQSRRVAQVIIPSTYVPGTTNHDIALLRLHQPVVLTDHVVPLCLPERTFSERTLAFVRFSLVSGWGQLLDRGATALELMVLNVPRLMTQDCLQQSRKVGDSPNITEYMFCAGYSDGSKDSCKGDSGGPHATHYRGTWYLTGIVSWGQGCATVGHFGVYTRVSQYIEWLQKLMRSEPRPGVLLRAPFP
# T1 sequence (P08709 61-212 limits assumed): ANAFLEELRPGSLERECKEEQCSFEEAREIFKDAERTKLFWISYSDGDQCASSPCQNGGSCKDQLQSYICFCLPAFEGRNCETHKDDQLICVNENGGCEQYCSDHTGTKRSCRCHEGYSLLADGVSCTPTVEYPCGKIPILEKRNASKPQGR
# T1 sequence (P13726 33-251 partner limits assumed): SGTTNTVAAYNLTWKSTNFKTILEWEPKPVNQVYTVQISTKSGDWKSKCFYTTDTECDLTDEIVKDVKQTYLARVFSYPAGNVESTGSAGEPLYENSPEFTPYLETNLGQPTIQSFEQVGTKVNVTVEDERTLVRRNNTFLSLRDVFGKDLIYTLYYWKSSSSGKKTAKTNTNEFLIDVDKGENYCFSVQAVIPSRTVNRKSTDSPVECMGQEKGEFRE
Structure (SMILES),% Inhibition TF-VIIa (100 µM) [%],IC50 or % Inhibition TF-VIIa (30 µM) [%@30]
Cc1c(Cl)nc(NCCN2CCOCC2)c(=O)n1CC(=O)NCCc1ccncc1 [Example E-0007],0,
O=C(Cn1c(Cc2ccccc2)c(Cl)nc(NCCc2ccncc2)c1=O)NCCc1ccncc1 [Example E-0062],0,
Cc1c(Cl)nc(NCCc2cccnc2)c(=O)n1CC(=O)NCCc1ccncc1 [Example E-0005],0,
O=C(Cn1c(CCc2ccccc2)c(Cl)nc(NCc2ccccc2)c1=O)NCCc1ccncc1 [Example E-0065],0,

# The next lines start with the values.
% Inhibition TF-VIIa (100 µM) [%],IC50 or % Inhibition TF-VIIa (30 µM) [%@30],Structure (SMILES)
,41,N=C(N)c1ccc(CNC(=O)Cn2c(Cc3ccccc3)c(Cl)nc(NCCc3ccccc3)c2=O)cc1 [Example 20]
0,,O=C(Cn1c(-c2ccccc2)c(Cl)nc(NCCc2cccnc2)c1=O)NCCc1ccncc1 [Example E-0013]

# Same assay, conditions: 100 µM
row,Structure (SMILES),% Inhibition TF-VIIa (100 µM) [%]
1,O=C(Cn1c(-c2cccc(Cl)c2)c(Cl)nc(NCCc2ccc(Cl)cc2)c1=O)NCCc1cccnc1 [Example E-0095],2
2,COc1ccc(-c2c(Cl)nc(NCCc3cccc(Cl)c3)c(=O)n2CC(=O)NCCc2ccncc2)cc1 [Example E-0103],2
3,COc1ccc(-c2c(Cl)nc(NCCc3ccc(Cl)cc3)c(=O)n2CC(=O)NCCc2ccncc2)cc1 [Example E-0106],5
4,O=C(Cn1c(-c2cccc(Cl)c2)c(Cl)nc(NCCc2ccccc2)c1=O)NCCc1ccncc1 [Example E-0088],0
5,O=C(Cn1c(-c2cccc(Cl)c2)c(Cl)nc(NCCc2cccc(Cl)c2)c1=O)NCCc1cccnc1 [Example E-0092],1
6,O=C(Cn1c(-c2ccc(Cl)cc2)c(Cl)nc(NCCN2CCOCC2)c1=O)NCCc1ccncc1 [Example E-0023],0
7,O=C(Cn1c(-c2ccc(-c3ccccc3)cc2)c(Cl)nc(NCc2ccccc2)c1=O)NCCc1ccncc1 [Example E-0049],2
8,O=C(Cn1c(-c2cccc(Cl)c2)c(Cl)nc(NCc2ccccc2)c1=O)NCCc1ccncc1 [Example E-0085],0
9,O=C(Cn1c(-c2cccc(Cl)c2)c(Cl)nc(NCCc2ccccc2)c1=O)NCCc1cccnc1 [Example E-0077],0
10,O=C(Cn1c(-c2ccc(Cl)cc2)c(Cl)nc(NCCc2ccccc2)c1=O)NCCc1ccncc1 [Example E-0026],0
11,O=C(Cn1c(-c2cccc(Cl)c2)c(Cl)nc(NCCc2cccc(Cl)c2)c1=O)NCCc1ccncc1 [Example E-0079],0
12,O=C(Cn1c(-c2ccc(Cl)cc2)c(Cl)nc(NCCc2cccnc2)c1=O)NCCc1ccncc1 [Example E-0021],0
13,O=C(Cn1c(-c2ccc(Cl)cc2)c(Cl)nc(NCc2ccccc2)c1=O)NCCc1ccncc1 [Example E-0017],0
14,COc1ccc(-c2c(Cl)nc(NCCc3cccc(Cl)c3)c(=O)n2CC(=O)NCCc2ccncc2)cc1 [Example E-0035],4
15,O=C(Cn1c(-c2ccc(Cl)cc2)c(Cl)nc(NCc2ccncc2)c1=O)NCCc1ccncc1 [Example E-0024],0
16,O=C(Cn1c(-c2ccc(-c3ccccc3)cc2)c(Cl)nc(NCCc2ccc(Cl)cc2)c1=O)NCCc1ccncc1 [Example E-0118],12
17,O=C(Cn1c(-c2cccc(Cl)c2)c(Cl)nc(NCc2ccccc2)c1=O)NCCc1cccnc1 [Example E-0086],0
18,O=C(Cn1c(-c2cccc(Cl)c2)c(Cl)nc(NCCc2ccccc2)c1=O)NCCc1ccncc1 [Example E-0076],0
19,O=C(Cn1c(-c2cccc(Cl)c2)c(Cl)nc(NCCc2ccc(Cl)cc2)c1=O)NCCc1ccncc1 [Example E-0082],4
20,O=C(Cn1c(-c2cccc(Cl)c2)c(Cl)nc(NCc2ccccc2)c1=O)NCCc1cccnc1 [Example E-0074],0
21,O=C(Cn1c(-c2ccc(-c3ccccc3)cc2)c(Cl)nc(NCCc2ccccc2)c1=O)NCCc1ccncc1 [Example E-0112],11
22,O=C(Cn1c(-c2ccc(Cl)cc2)c(Cl)nc(NCCc2ccncc2)c1=O)NCCc1ccncc1 [Example E-0022],0
23,O=C(Cn1c(-c2ccc(Cl)cc2)c(Cl)nc(NCCc2ccc(Cl)cc2)c1=O)NCCc1ccncc1 [Example E-0020],0
24,O=C(Cn1c(-c2ccc(-c3ccccc3)cc2)c(Cl)nc(NCc2ccccc2)c1=O)NCCc1ccncc1 [Example E-0109],2
25,O=C(Cn1c(-c2cccc(Cl)c2)c(Cl)nc(NCCc2cccc(Cl)c2)c1=O)NCCc1cccnc1 [Example E-0080],1
26,O=C(Cn1c(-c2cccc(Cl)c2)c(Cl)nc(NCCc2ccccc2)c1=O)NCCc1cccnc1 [Example E-0089],3
27,O=C(Cn1c(-c2ccc(Cl)cc2)c(Cl)nc(NCCc2ccccc2)c1=O)NCCc1ccncc1 [Example E-0018],1

# Second part, the compound after the results:
row,% Inhibition TF-VIIa (100 µM) [%],Structure (SMILES)
1,1,O=C(Cn1c(-c2cccc(Cl)c2)c(Cl)nc(NCCc2cccc(Cl)c2)c1=O)NCCc1ccncc1 [Example E-0091]
2,0,O=C(Cn1c(-c2ccc(Cl)cc2)c(Cl)nc(NCCc2cccc(Cl)c2)c1=O)NCCc1ccncc1 [Example E-0019]
3,0,COc1ccc(-c2c(Cl)nc(NCCc3ccc(Cl)cc3)c(=O)n2CC(=O)NCCc2ccncc2)cc1 [Example E-0036]
4,0,O=C(Cn1c(-c2cccc(Cl)c2)c(Cl)nc(NCc2ccccc2)c1=O)NCCc1ccncc1 [Example E-0073]
5,2,O=C(Cn1c(-c2cccc(Cl)c2)c(Cl)nc(NCCc2ccc(Cl)cc2)c1=O)NCCc1cccnc1 [Example E-0083]
6,0,O=C(Cn1c(-c2ccc(Cl)cc2)c(Cl)nc(NCCc2ccncc2)c1=O)NCCc1ccncc1 [Example E-0030]
7,0,O=C(Cn1c(-c2ccc(Cl)cc2)c(Cl)nc(NCc2ccncc2)c1=O)NCCc1ccncc1 [Example E-0032]
8,0,COc1ccc(-c2c(Cl)nc(NCCc3ccccc3)c(=O)n2CC(=O)NCCc2ccncc2)cc1 [Example E-0034]
9,0,O=C(Cn1c(-c2ccc(Cl)cc2)c(Cl)nc(NCc2ccccc2)c1=O)NCCc1ccncc1 [Example E-0025]
10,0,O=C(Cn1c(-c2ccc(Cl)cc2)c(Cl)nc(NCCc2cccnc2)c1=O)NCCc1ccncc1 [Example E-0029]
11,2,O=C(Cn1c(-c2cccc(Cl)c2)c(Cl)nc(NCCc2ccc(Cl)cc2)c1=O)NCCc1ccncc1 [Example E-0094]
12,0,O=C(Cn1c(-c2ccc(-c3ccccc3)cc2)c(Cl)nc(NCCc2ccc(Cl)cc2)c1=O)NCCc1ccncc1 [Example E-0052]
13,0,O=C(Cn1c(-c2ccc(Cl)cc2)c(Cl)nc(NCCc2ccc(Cl)cc2)c1=O)NCCc1ccncc1 [Example E-0028]
14,0,O=C(Cn1c(-c2ccc(-c3ccccc3)cc2)c(Cl)nc(NCCc2ccccc2)c1=O)NCCc1ccncc1 [Example E-0050]

# Same assay, conditions: cells given as a plain number (IC50); read-out: IC50 or % Inhibition TF-VIIa (30 µM)
row,Structure (SMILES),pIC50
1,N=C(N)c1ccc(CNC(=O)Cn2c(-c3ccccc3)c(Cl)nc(NCCN3CCOCC3)c2=O)cc1 [1471-12],5.10
2,Nc1cccc(-c2c(Cl)nc(NC3CCC3)c(=O)n2CC(=O)NCc2ccc(C3=NCCN3)cc2)c1 [Example 27],4.90

# The remaining lines, values ahead:
row,pIC50,Structure (SMILES)
1,6.40,N=C(N)c1ccc(CNC(=O)Cn2c(-c3ccccc3)c(Cl)nc(NC3CCC3)c2=O)cc1 [1507-21]
2,5.52,NCc1ccc(CNC(=O)Cn2c(-c3cccc(N)c3)c(Cl)nc(NC3CCC3)c2=O)cc1 [Example 28]
3,6.74,N=C(N)c1ccc(CNC(=O)Cn2c(-c3ccccc3)c(Cl)nc(NCCc3cccc(Cl)c3)c2=O)cc1 [1471-14]

# Same assay, conditions: read-out: IC50 or % Inhibition TF-VIIa (30 µM); cells given as a plain number (IC50)
row,Structure (SMILES),pIC50
1,N=C(N)c1ccc(CNC(=O)Cn2c(-c3c(Cl)cccc3Cl)c(Cl)nc(NCCc3cccc(Cl)c3)c2=O)cc1 [1517-24],5.74
2,N=C(N)c1ccc(CNC(=O)Cn2c(-c3ccc4c(c3)OCO4)c(Cl)nc(NCc3ccncc3)c2=O)cc1 [1471-43],4.60
3,N=C(N)c1ccc(CNC(=O)Cn2c(-c3ccc(Cl)cc3)c(Cl)nc(NCc3ccccc3)c2=O)cc1 [1471-17],4.96

# Further lines, results first:
row,pIC50,Structure (SMILES)
1,4.60,N=C(N)c1ccc(CNC(=O)Cn2c(-c3ccccc3)c(Cl)nc(NCc3ccccc3OC(F)(F)F)c2=O)cc1 [1512-42]
2,5.74,N=C(N)NC/C=C\CNC(=O)Cn1c(-c2ccccc2)cnc(NCCc2ccccc2)c1=O [Example 37]
3,5.09,N=C(N)c1ccc(CNC(=O)Cn2c(-c3ccc(Cl)cc3)c(Cl)nc(NCCc3ccncc3)c2=O)cc1 [1471-21]
4,5.00,N=C(N)c1ccc(CNC(=O)Cn2c(-c3ccc(Cl)cc3)c(Cl)nc(NCCc3cccnc3)c2=O)cc1 [1471-24]

# Same assay, conditions: read-out: IC50 or % Inhibition TF-VIIa (30 µM); cells without % sign: IC50
row,pIC50,Structure (SMILES)
1,5.91,N=C(N)c1ccc(CNC(=O)Cn2c(-c3cccc(N)c3)c(Cl)nc(NCCN3CCCC3)c2=O)c(F)c1 [1543-37]

# Target: Human factor Xa (Homo sapiens, UniProt P00742)
# Sequence (P00742 235-488 limits assumed): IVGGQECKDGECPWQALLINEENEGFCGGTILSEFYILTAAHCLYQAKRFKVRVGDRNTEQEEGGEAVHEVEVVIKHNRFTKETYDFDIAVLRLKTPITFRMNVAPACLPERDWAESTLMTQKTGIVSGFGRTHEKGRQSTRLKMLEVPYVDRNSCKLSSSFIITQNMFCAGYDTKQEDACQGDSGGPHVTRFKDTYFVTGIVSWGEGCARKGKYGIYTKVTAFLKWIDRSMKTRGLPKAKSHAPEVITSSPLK
# Sequence (P00742 41-179 limits assumed): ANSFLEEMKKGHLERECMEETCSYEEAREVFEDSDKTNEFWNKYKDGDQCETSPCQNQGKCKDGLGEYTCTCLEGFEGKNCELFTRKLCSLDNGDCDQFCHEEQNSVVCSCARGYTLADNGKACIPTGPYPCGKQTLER
# Assay: not given
# Conditions: not given
Structure (SMILES),IC50 or % Inhibition Factor Xa (30 µM),% Inhibition Factor Xa (100 µM) [%]
N=C(N)c1ccc(CNC(=O)Cn2c(-c3c(Cl)cccc3Cl)c(Cl)nc(NCCc3cccc(Cl)c3)c2=O)cc1 [1517-24],0%,
Cc1c(Cl)nc(NCCN2CCOCC2)c(=O)n1CC(=O)NCCc1ccncc1 [Example E-0007],,0
N=C(N)c1ccc(CNC(=O)Cn2c(-c3ccc4c(c3)OCO4)c(Cl)nc(NCc3ccncc3)c2=O)cc1 [1471-43],18%,
O=C(Cn1c(Cc2ccccc2)c(Cl)nc(NCCc2ccncc2)c1=O)NCCc1ccncc1 [Example E-0062],,0
Cc1c(Cl)nc(NCCc2cccnc2)c(=O)n1CC(=O)NCCc1ccncc1 [Example E-0005],,0
N=C(N)c1ccc(CNC(=O)Cn2c(-c3ccccc3)c(Cl)nc(NCCN3CCOCC3)c2=O)cc1 [1471-12],9%,
O=C(Cn1c(CCc2ccccc2)c(Cl)nc(NCc2ccccc2)c1=O)NCCc1ccncc1 [Example E-0065],,0
O=C(Cn1c(-c2ccc(-c3ccccc3)cc2)c(Cl)nc(NCCc2cccc(Cl)c2)c1=O)NCCc1cccnc1 [Example E-0116],,4
O=C(Cn1c(-c2ccc(-c3ccccc3)cc2)c(Cl)nc(NCCc2ccc(Cl)cc2)c1=O)NCCc1cccnc1 [Example E-0119],,5

# The remaining lines, values ahead:
IC50 or % Inhibition Factor Xa (30 µM),% Inhibition Factor Xa (100 µM) [%],Structure (SMILES)
1%,,N=C(N)c1ccc(CNC(=O)Cn2c(-c3ccccc3)c(Cl)nc(NCc3ccccc3OC(F)(F)F)c2=O)cc1 [1512-42]
6%@30,,N=C(N)c1ccc(CNC(=O)Cn2c(Cc3ccccc3)c(Cl)nc(NCCc3ccccc3)c2=O)cc1 [Example 20]
23%,,N=C(N)c1ccc(CNC(=O)Cn2c(-c3ccccc3)c(Cl)nc(NC3CCC3)c2=O)cc1 [1507-21]
,0,O=C(Cn1c(-c2ccccc2)c(Cl)nc(NCCc2cccnc2)c1=O)NCCc1ccncc1 [Example E-0013]
0%,,N=C(N)NC/C=C\CNC(=O)Cn1c(-c2ccccc2)cnc(NCCc2ccccc2)c1=O [Example 37]
